Experimental data as given in patent US12091411B2, “IRAK degraders and uses thereof” (Kymera Therapeutics, Inc., priority 2022, dated 2024).
Read-outs that look alike come from different tables or passages of the source.

Molecular target: T1, IRAK4 (Homo sapiens, UniProt Q9NWZ3)
T1 construct: Degradation of IRAK4 in OCI-LY10 was quantitatively measured using Meso Scale Discovery technology; endogenous in cells; host or cells: OCI-LY10
T1 sequence (Q9NWZ3 1-460): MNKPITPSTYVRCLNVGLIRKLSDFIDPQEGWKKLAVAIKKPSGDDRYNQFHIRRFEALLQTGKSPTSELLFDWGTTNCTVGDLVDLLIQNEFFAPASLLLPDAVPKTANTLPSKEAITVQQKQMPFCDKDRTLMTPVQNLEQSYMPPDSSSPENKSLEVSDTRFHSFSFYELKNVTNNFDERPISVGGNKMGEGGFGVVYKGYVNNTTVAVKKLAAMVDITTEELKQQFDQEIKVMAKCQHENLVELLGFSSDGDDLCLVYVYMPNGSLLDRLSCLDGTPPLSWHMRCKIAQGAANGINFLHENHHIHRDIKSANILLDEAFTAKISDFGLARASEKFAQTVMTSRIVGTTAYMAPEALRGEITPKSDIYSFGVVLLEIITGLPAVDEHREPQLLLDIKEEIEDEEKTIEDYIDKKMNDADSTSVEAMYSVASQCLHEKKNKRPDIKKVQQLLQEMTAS
Test: IRAK4 MSD Degradation in OCI-LY10
Format: cell-based
Conditions: OCI-LY10 cells, MSD
Outline: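 DC50, from a three-parameter logistic fit and reported as letter bins A (<0.01 μM), B, C, D (>0.2 μM or not tested), reflects IRAK4 loss measured by MSD electrochemiluminescence in OCI-LY10 lysates. Treatment: 8 doses, 1:3 steps, top 1 to 10 μM, 4 to 24 h, 37 °C.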

[1] = 4 hrs incubation, read-out: IRAK4 degradation in OCI-LY10 at 4 hrs: DC50
[2] = 24 hrs incubation, read-out: IRAK4 degradation in OCI-LY10 at 24 hrs: DC50

DC50 [1] | DC50 [2] | Compound
> 200 nM | > 200 nM | CN(C[C@H]1CC[C@H](n2cc(NC(=O)c3cnn4ccc(N5C[C@H]6C[C@@H]5CO6)nc34)c(C(F)F)n2)CC1)C1CN(c2cccc3c2n(C)c(=O)n3C2CCC(=O)NC2=O)C1 (some centres unmarked) [I-602]
10 to 100 nM | > 200 nM | Cn1c(=O)n(C2CCC(=O)NC2=O)c2cccc(C#CCN3C[C@H]4C[C@@H]3CN4C[C@H]3CC[C@H](n4cc(NC(=O)c5cnn6ccc(N7C[C@H]8C[C@@H]7CO8)nc56)c(C(F)F)n4)CC3)c21 (some centres unmarked) [I-45]
> 200 nM | > 200 nM | CC1CCN(c2ccn3ncc(C(=O)Nc4cn([C@H]5CC[C@H](CN(C)C6CCN(c7cccc8c7n(C)c(=O)n8C7CCC(=O)NC7=O)CC6(F)F)CC5)nc4C(F)F)c3n2)CC1 (some centres unmarked) [I-520]
> 200 nM | 10 to 100 nM | COc1cc2nn([C@H]3CC[C@H](CN4CCC5(CC4)CCN(c4cccc6c4n(C)c(=O)n6C4CCC(=O)NC4=O)CC5)CC3)cc2cc1NC(=O)c1cncc(C#N)c1 (some centres unmarked) [I-156]
> 200 nM | < 10 nM | Cn1c(=O)n(C2CCC(=O)NC2=O)c2cccc(C3COC4(C3)CN(C[C@H]3CC[C@H](n5cc6cc(NC(=O)c7cccc(C(F)(F)F)n7)ccc6n5)CC3)C4)c21 (some centres unmarked) [I-689]
> 200 nM | > 200 nM | O=C1CCC(c2cccc(C#CCN3CCN(C[C@H]4CC[C@@H](n5cc(NC(=O)c6cnn7ccc(N8C[C@@H]9C[C@H]8CO9)nc67)c(C(F)F)n5)CC4)CC3)c2)C(=O)N1 (some centres unmarked) [I-125]
> 200 nM | < 10 nM | C[C@@H]1CN(c2ccn3ncc(C(=O)Nc4cn([C@H]5CC[C@H](CN(C)C6CCN(c7cccc8c7n(C)c(=O)n8C7CCC(=O)NC7=O)CC6)CC5)nc4C(F)F)c3n2)CCO1 (some centres unmarked) [I-428]
> 200 nM | > 200 nM | Cn1c(=O)n(C2CCC(=O)NC2=O)c2cccc(C#CCN3CCN(C[C@H]4CC[C@H](n5cc(NC(=O)c6cccc(C#N)n6)c(C(F)F)n5)CC4)CC3)c21 (some centres unmarked) [I-261]
> 200 nM | < 10 nM | Cn1c(=O)n(C2CCC(=O)NC2=O)c2cccc([C@H]3C[C@](O)(CN4CCN(C[C@H]5CC[C@H](n6cc(NC(=O)c7cnn8ccc(N9C[C@H]%10CC9CO%10)nc78)c(C(F)F)n6)CC5)CC4)C3)c21 (some centres unmarked) [I-580]
< 10 nM | > 200 nM | Cn1c(=O)n([C@H]2CCC(=O)NC2=O)c2cccc(C#CCN3CCN(C[C@H]4CC[C@H](n5cc(NC(=O)c6cnn7ccc(N8C[C@H]9C[C@@H]8CO9)nc67)c(C(F)F)n5)CC4)CC3)c21 (single isomer, unassigned) [I-72]
> 200 nM | < 10 nM | CC1CCN(c2ccn3ncc(C(=O)Nc4cn([C@H]5CC[C@H](CN(C)C6CCN(c7cccc8c7n(C)c(=O)n8C7CCC(=O)NC7=O)CC6)CC5)nc4C(F)F)c3n2)CC1 (some centres unmarked) [I-271]
> 200 nM | > 200 nM | Cn1c(=O)n(C2CCC(=O)NC2=O)c2cccc(OC3CN(C[C@H]4CC[C@H](n5cc6cc(NC(=O)c7cccc(C(F)(F)F)n7)ncc6n5)CC4)C3)c21 (some centres unmarked) [I-608]
> 200 nM | < 10 nM | Cn1c(=O)n(C2CCC(=O)NC2=O)c2cccc(C3=CCN(C[C@H]4CC[C@H](n5cc6cc(NC(=O)c7cccc(C(F)(F)F)n7)c(C#N)cc6n5)CC4)CC3F)c21 (some centres unmarked) [I-713]
100 to 200 nM | > 200 nM | COc1cc2nn([C@H]3CC[C@H](CN4CCC5(CC4)CCN(c4cccc6c4n(C)c(=O)n6C4CCC(=O)NC4=O)CC5)CC3)cc2cc1NC(=O)c1cncc(OC(F)(F)F)c1 (some centres unmarked) [I-147]
> 200 nM | < 10 nM | Cn1c(=O)n(C2CCC(=O)NC2=O)c2cccc(C3CCN(C[C@H]4CC[C@H](n5cc6cc(NC(=O)c7cccc(C(F)(F)F)n7)c(C(F)F)cc6n5)CC4)CC3F)c21 (some centres unmarked) [I-545]
10 to 100 nM | > 200 nM | Cn1c(=O)n(C2CCC(=O)NC2=O)c2cccc(C#CCN3C4COCC3CN(C[C@H]3CC[C@H](n5cc(NC(=O)c6cnn7ccc(N8C[C@H]9C[C@@H]8CO9)nc67)c(C(F)F)n5)CC3)C4)c21 (some centres unmarked) [I-349]
> 200 nM | < 10 nM | Cn1c(=O)n(C2CCC(=O)NC2=O)c2ccc(F)c(N3CC(N4CCN([C@H]5CC[C@H](n6cc(NC(=O)c7cnn8ccc(N9C[C@H]%10C[C@@H]9CO%10)nc78)c(C(F)F)n6)CC5)CC4)C3)c21 (some centres unmarked) [I-745]
> 200 nM | > 200 nM | CN(C[C@H]1CC[C@H](n2cc(NC(=O)c3cnn4ccc(N5CC(C)(C)C5)nc34)c(C(F)F)n2)CC1)C1CCN(c2cccc3c2n(C)c(=O)n3C2CCC(=O)NC2=O)CC1(F)F (some centres unmarked) [I-505]
> 200 nM | > 200 nM | Cn1c(=O)n(C2CCC(=O)NC2=O)c2cccc(C#CCOC3CCN(C[C@H]4CC[C@H](n5cc(NC(=O)c6cccc(C#N)n6)c(C(F)F)n5)CC4)CC3)c21 (some centres unmarked) [I-260]

DC50 [1] | DC50 [2] | Compound
> 200 nM | > 200 nM | Cn1c(=O)n(C2CCC(=O)NC2=O)c2cccc([C@H]3C[C@H](CN4CCN(C[C@H]5CC[C@H](n6cc(NC(=O)c7cnn8cccnc78)c(C(F)F)n6)CC5)CC4)C3)c21 (some centres unmarked) [I-572]
> 200 nM | 10 to 100 nM | Cn1c(=O)n(C2CCC(=O)NC2=O)c2cccc(C#CCN3CCN(C[C@H]4CC[C@H](n5cc(NC(=O)c6cnn7ccc(N8CCCC8(C)C)nc67)c(C(F)F)n5)CC4)CC3)c21 (some centres unmarked) [I-221]
> 200 nM | > 200 nM | Cn1c(=O)n(C2CCC(=O)NC2=O)c2cccc([C@@H]3CCN(C[C@H]4CC[C@H](n5cc6cc(NC(=O)c7cccc(C(F)F)n7)ncc6n5)CC4)C[C@@H]3F)c21 (some centres unmarked) [I-640]
> 200 nM | > 200 nM | Cn1c(=O)n(C2CCC(=O)NC2=O)c2cccc(N3CCC(O[C@H]4CC[C@H](n5cc6cc(NC(=O)c7cccc(C(F)(F)F)n7)ccc6n5)CC4)CC3)c21 (some centres unmarked) [I-792]
> 200 nM | > 200 nM | COc1cc2nn([C@H]3CC[C@H](CN4CC=C(c5ccc6c(N7CCC(=O)NC7=O)cncc6c5)C(F)(F)C4)CC3)cc2cc1NC(=O)c1cccc(C(F)(F)F)n1 [I-470]
10 to 100 nM | > 200 nM | Cn1c(=O)n(C2CCC(=O)NC2=O)c2cccc(N3CCN(CC4CCC(n5cc(NC(=O)c6cnn7ccc(N8CC9C[C@@H]8CO9)nc67)c(C(F)F)n5)CC4)CC3)c21 (some centres unmarked) [I-189]
10 to 100 nM | > 200 nM | C[C@H]1CN(C[C@H]2CC[C@H](n3cc(NC(=O)c4cnn5ccc(N6C[C@H]7C[C@@H]6CO7)nc45)c(C(F)F)n3)CC2)CC[C@H]1OCC#Cc1cccc2c1n(C)c(=O)n2C1CCC(=O)NC1=O (some centres unmarked) [I-26]
> 200 nM | > 200 nM | CN(C[C@H]1CC[C@H](n2cc(NC(=O)c3cnn4ccc(N5CCC6(CC5)CC6)nc34)c(C(F)F)n2)CC1)C1CCN(c2cccc3c2n(C)c(=O)n3C2CCC(=O)NC2=O)CC1(F)F (some centres unmarked) [I-521]
> 200 nM | 10 to 100 nM | Cn1c(=O)n(C2CCC(=O)NC2=O)c2cccc(C3CCN(C[C@H]4CC[C@H](n5cc6cc(NC(=O)c7cccc(C(F)(F)F)n7)c(Cl)cc6n5)CC4)CC3F)c21 (some centres unmarked) [I-552]
< 10 nM | > 200 nM | COc1cc2nn([C@H]3CC[C@H](CN4CCC(c5cccc6c5n(C)c(=O)n6C5CCC(=O)NC5=O)CC4)CC3)cc2cc1NC(=O)c1cncc(F)c1 (some centres unmarked) [I-439]
< 10 nM | < 10 nM | C[C@H]1CN(c2ccn3ncc(C(=O)Nc4cn([C@H]5CC[C@H](CN(C)C6CCN(c7cccc8c7n(C)c(=O)n8C7CCC(=O)NC7=O)CC6)CC5)nc4C(F)F)c3n2)C[C@H](C)O1 (some centres unmarked) [I-441]
> 200 nM | < 10 nM | CN1CCN(c2ccn3ncc(C(=O)Nc4cn([C@H]5CC[C@H](CN6CCC(OCC#Cc7cccc8c7n(C)c(=O)n8C7CCC(=O)NC7=O)CC6)CC5)nc4C(F)F)c3n2)CC1 (some centres unmarked) [I-309]
> 200 nM | > 200 nM | Cn1c(=O)n(C2CCC(=O)NC2=O)c2cccc(N3CC(F)(CN4CCN(C[C@H]5CC[C@H](n6cc(NC(=O)c7cnn8ccc(N9C[C@H]%10CC9CO%10)nc78)c(C(F)F)n6)CC5)CC4)C3)c21 (some centres unmarked) [I-604]
< 10 nM | > 200 nM | Cn1c(=O)n(C2CCC(=O)NC2=O)c2cccc(N3CCC(CN4CCN(C[C@H]5CC[C@H](n6cc(NC(=O)c7cnn8ccc(N9C[C@H]%10C[C@@H]9CO%10)nc78)c(C(F)F)n6)CC5)CC4)CC3)c21 (some centres unmarked) [I-164]
> 200 nM | > 200 nM | Cn1c(=O)n(C2CCC(=O)NC2=O)c2ccc(C3CCN(C[C@H]4CC[C@H](n5cc6cc(NC(=O)c7cccc(C(F)(F)F)n7)c(C(F)F)cc6n5)CC4)CC3(F)F)cc21 (some centres unmarked) [I-569]
< 10 nM | > 200 nM | O=C1CCC(n2c(=O)n(C3CC3)c3c(C#CCOC4CCN(C[C@H]5CC[C@H](n6cc(NC(=O)c7cnn8ccc(N9C[C@H]%10C[C@@H]9CO%10)nc78)c(C(F)F)n6)CC5)CC4)cccc32)C(=O)N1 (some centres unmarked) [I-65]
> 200 nM | < 10 nM | Cn1c(=O)n(C2CCC(=O)NC2=O)c2ccc(N3CC(CO[C@@H]4CCN(C[C@H]5CC[C@H](n6cc(NC(=O)c7cnn8ccc(N9C[C@H]%10C[C@@H]9CO%10)nc78)c(C(F)F)n6)CC5)C[C@H]4F)C3)c(F)c21 (some centres unmarked) [I-742]
< 10 nM | > 200 nM | Cn1c(=O)n(C2CCC(=O)NC2=O)c2cccc(N3CCC(N4CCN(C[C@H]5CC[C@H](n6cc(NC(=O)c7cnn8ccc(N9C[C@H]%10C[C@@H]9CO%10)nc78)c(C(F)F)n6)CC5)CC4)CC3)c21 (some centres unmarked) [I-69]
